Source: patent US20070027181A1, “Benzylisoquinoline derivative- or bisbenzylisoquinoline derivative-containing psychotropic agent, analgesic and/or antiphlogistic, and health food” (EDUCATION CENTER OF TRADITIONAL, priority 2004, published 2007)

How the values were obtained:
mice [1] = test: formalin pad test; assay type: in vivo, Male ICR mice; settings: for Licking sustaining time (second) First phase: 0 to 5 minutes; for Licking sustaining time (second) Second phase: 15 to 30 minutes
Protocol: (§1) In the following Examples, all extracts and drugs used were dissolved in physiological saline before use for i.p. administration and the dose was 0.1 ml of physiological saline per 10 g of mouse body weight in either case. All extracts and drugs were suspended in physiological saline containing 1% sodium carboxymethylcellulose before use for oral administration and the dose was 0.1 ml of 1% sodium carboxymethylcellulose-containing physiological saline suspension per 10 g of mouse body weight in either case. Male ICR mice (Japan SLC) having a body weight of 25 to 30 g were used in the tests below unless otherwise stated, and were fed in advance at a room temperature of 23±1° C. and a relative humidity of 55±5% in the environment of a cycle of 12-hour-light from 7 a.m. to 7 p.m. and 12-hour-dark from 7 p.m. to 7 a.m. for 3 to 5 days. The mice were allowed to have water and feed freely.
A formalin pad test is a method in which, when formalin is subcutaneously administered to a pad of a mouse, the mouse causes licking, and analgesic action of a test drug is determined by utilizing this. Suppression of licking in a test drug-administered group was investigated relative to a physiological saline-administered control group, and analgestic action was evaluated.
Six mice per group were used. Neferine hydrochloride was intraperitoneally administered at a dose of 25 mg/kg, 50 mg/kg or 100 mg/kg and, after fifteen minutes, 20 μl of a 0.2% by weight formalin aqueous solution was subcutaneously administered to a right hind paw pad. After formalin administration, licking was regarded as a provisional pain reaction, and a licking sustaining time in a first phase from immediately after formalin administration to five minutes after formalin administration and in a second phase from 15 minutes to 30 minutes after formalin administration was measured. Regarding the resulting measurements, a significant difference test was performed by a Dunnet multiple comparison test method.
According to the same manner as in Example 13 except that 10 mg/kg of O-methylarmepavine was intraperitoneally administered in place of neferine, a formalin pad test was performed.

mice [2] = test: forced swimming test (antidepressive action); assay type: in vivo, Male ICR mice; settings: 100 mg/kg i.p., 6-minute period
Protocol: as §1
Forced swimming tests were conducted according to the method of Porsolt et al. A mouse was placed in a cylindrical glass water tank of 10 cm in diameter and 25 cm in height (water temperature: 23° C.) filled with water to a depth of 10 cm and forced to swim therein. […] Each mouse was forced to swim 15 and 30 minutes after administration, and the immobile times during the 6-minute periods immediately after forced swimming were determined. […]

mice [3] = test: histamine-induced paw edema test; assay type: in vivo, Male ICR mice; settings: 100 mg/kg i.p. 30 minutes before histamine 10 μg; 12 minutes after histamine
Protocol: as §1
Six mice per group were used. […] The thickness of the right hind paw was measured immediately before histamine administration and 12 minutes after histamine administration. The thickness immediately before administration was subtracted from the thickness of the paw after histamine administration, and this was adopted as a thickness of paw edema. As apparent from TABLE 18, paw edema due to histamine was suppressed by neferine. […]

mice [4] = test: elevated plus-maze test (antianxiety action); assay type: in vivo, Male ICR mice; settings: 100 mg/kg i.p., 30 minutes after administration
Protocol: In the following Examples, all extracts and drugs used were dissolved in physiological saline before use for i.p. administration and the dose was 0.1 ml of physiological saline per 10 g of mouse body weight in either case. All extracts and drugs were suspended in physiological saline containing 1% sodium carboxymethylcellulose before use for oral administration and the dose was 0.1 ml of 1% sodium carboxymethylcellulose-containing physiological saline suspension per 10 g of mouse body weight in either case. […]
An elevated plus-maze (Neuroscience Inc.) consisting of 2 arms without high walls and 2 arms enclosed by high walls, which were crossing perpendicular to each other, was used for evaluation. A mouse was placed on the platform at the center in a position facing toward an arm without walls, and the number of times the mouse entered into both arms and the period of the mouse staying in the arms without walls were determined during a period of 5 minutes. The results were evaluated by the ratio (%) of the number of the mouse entering into the arms without walls to the total number of entering into both arms and by the ratio (%) of the period of the mouse staying in the arms without walls to the test period. […]

mice [5] = test: thiopental sleep-enhancing test; assay type: in vivo, Male ICR mice; settings: 50 mg/kg i.p. 15 minutes before thiopental 60 mg/kg i.p.
Protocol: Actions on thiopental sleep by various compounds were evaluated. Thiopental dissolved in physiological saline was administered intraperitoneally into mice at a dose of 60 mg/kg. […] The time when the righting reflex of the mice disappeared after thiopental administration was designated as sleep-induction time and the time when the righting reflex was restored was designated as awakening time, and total sleep time was calculated from these values.

mice [6] = settings: Ito et al., abstract of the Japanese Society of Pharmacognosy; cited from earlier work
[7] = 25 mg/kg i.p. 15 minutes before formalin
[8] = 50 mg/kg i.p. 15 minutes before formalin
[9] = 100 mg/kg i.p. 15 minutes before formalin

COc1ccc(C[C@@H]2c3cc(Oc4cc(C[C@@H]5c6cc(OC)c(OC)cc6CCN5C)ccc4O)c(OC)cc3CCN2C)cc1 [neferine]
Licking sustaining time (second) First phase (mice [1]; [7]): 95.2 ± 3.79 s
Licking sustaining time (second) Second phase (mice [1]; [7]): 235.7 ± 13.01 s
Licking sustaining time (second) First phase (mice [1]; [8]): 98.7 ± 8.57 s
Licking sustaining time (second) Second phase (mice [1]; [8]): 200.3 ± 24.43 s
Licking sustaining time (second) First phase (mice [1]; [9]): 78.3 ± 7.57 s
Licking sustaining time (second) Second phase (mice [1]; [9]): 139.7 ± 18.61 s
Immobile time (sec) After 15 minutes (mice [2]; 15 minutes after administration): 165 s
Immobile time (sec) After 30 minutes (mice [2]; 30 minutes after administration): 170 s
Thickness of paw edema (mm) (mice [3]): 0.32 ± 0.03 mm
Invasion times (%) (mice [4]; entries into arms without walls / total entries): 70%
Staying period (%) (mice [4]; period in arms without walls / test period): 33%
Total sleep time (mice [5]): 100 min
locomotor activity-inhibiting action (mice [6]): exhibited a locomotor activity-inhibiting action
